Test results taken from patent publication US12187742B2 (XRAD Therapeutics, Inc., priority 2018, dated 2025).
Counter-ions that a name gives are not always drawn.

Molecular target: ATM (Homo sapiens (Human), UniProt Q13315)
Assay: ATM in Cell Western Assay (pKAP1 in etoposide-treated MCF-7 cells)
Assay type: cell-based
Conditions: MCF-7 cells, etoposide 100 μM, 1 hr, pKAP1 readout
Method in brief: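 After paraformaldehyde fixation and Triton X-100 permeabilization, immunostained plates were read by infrared scanning (ODYSSEY CLx). Compound was given as 10 doses, 3-fold dilutions from a 1 μM final top concentration.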

Chain of ATM (Q13315 whole entry): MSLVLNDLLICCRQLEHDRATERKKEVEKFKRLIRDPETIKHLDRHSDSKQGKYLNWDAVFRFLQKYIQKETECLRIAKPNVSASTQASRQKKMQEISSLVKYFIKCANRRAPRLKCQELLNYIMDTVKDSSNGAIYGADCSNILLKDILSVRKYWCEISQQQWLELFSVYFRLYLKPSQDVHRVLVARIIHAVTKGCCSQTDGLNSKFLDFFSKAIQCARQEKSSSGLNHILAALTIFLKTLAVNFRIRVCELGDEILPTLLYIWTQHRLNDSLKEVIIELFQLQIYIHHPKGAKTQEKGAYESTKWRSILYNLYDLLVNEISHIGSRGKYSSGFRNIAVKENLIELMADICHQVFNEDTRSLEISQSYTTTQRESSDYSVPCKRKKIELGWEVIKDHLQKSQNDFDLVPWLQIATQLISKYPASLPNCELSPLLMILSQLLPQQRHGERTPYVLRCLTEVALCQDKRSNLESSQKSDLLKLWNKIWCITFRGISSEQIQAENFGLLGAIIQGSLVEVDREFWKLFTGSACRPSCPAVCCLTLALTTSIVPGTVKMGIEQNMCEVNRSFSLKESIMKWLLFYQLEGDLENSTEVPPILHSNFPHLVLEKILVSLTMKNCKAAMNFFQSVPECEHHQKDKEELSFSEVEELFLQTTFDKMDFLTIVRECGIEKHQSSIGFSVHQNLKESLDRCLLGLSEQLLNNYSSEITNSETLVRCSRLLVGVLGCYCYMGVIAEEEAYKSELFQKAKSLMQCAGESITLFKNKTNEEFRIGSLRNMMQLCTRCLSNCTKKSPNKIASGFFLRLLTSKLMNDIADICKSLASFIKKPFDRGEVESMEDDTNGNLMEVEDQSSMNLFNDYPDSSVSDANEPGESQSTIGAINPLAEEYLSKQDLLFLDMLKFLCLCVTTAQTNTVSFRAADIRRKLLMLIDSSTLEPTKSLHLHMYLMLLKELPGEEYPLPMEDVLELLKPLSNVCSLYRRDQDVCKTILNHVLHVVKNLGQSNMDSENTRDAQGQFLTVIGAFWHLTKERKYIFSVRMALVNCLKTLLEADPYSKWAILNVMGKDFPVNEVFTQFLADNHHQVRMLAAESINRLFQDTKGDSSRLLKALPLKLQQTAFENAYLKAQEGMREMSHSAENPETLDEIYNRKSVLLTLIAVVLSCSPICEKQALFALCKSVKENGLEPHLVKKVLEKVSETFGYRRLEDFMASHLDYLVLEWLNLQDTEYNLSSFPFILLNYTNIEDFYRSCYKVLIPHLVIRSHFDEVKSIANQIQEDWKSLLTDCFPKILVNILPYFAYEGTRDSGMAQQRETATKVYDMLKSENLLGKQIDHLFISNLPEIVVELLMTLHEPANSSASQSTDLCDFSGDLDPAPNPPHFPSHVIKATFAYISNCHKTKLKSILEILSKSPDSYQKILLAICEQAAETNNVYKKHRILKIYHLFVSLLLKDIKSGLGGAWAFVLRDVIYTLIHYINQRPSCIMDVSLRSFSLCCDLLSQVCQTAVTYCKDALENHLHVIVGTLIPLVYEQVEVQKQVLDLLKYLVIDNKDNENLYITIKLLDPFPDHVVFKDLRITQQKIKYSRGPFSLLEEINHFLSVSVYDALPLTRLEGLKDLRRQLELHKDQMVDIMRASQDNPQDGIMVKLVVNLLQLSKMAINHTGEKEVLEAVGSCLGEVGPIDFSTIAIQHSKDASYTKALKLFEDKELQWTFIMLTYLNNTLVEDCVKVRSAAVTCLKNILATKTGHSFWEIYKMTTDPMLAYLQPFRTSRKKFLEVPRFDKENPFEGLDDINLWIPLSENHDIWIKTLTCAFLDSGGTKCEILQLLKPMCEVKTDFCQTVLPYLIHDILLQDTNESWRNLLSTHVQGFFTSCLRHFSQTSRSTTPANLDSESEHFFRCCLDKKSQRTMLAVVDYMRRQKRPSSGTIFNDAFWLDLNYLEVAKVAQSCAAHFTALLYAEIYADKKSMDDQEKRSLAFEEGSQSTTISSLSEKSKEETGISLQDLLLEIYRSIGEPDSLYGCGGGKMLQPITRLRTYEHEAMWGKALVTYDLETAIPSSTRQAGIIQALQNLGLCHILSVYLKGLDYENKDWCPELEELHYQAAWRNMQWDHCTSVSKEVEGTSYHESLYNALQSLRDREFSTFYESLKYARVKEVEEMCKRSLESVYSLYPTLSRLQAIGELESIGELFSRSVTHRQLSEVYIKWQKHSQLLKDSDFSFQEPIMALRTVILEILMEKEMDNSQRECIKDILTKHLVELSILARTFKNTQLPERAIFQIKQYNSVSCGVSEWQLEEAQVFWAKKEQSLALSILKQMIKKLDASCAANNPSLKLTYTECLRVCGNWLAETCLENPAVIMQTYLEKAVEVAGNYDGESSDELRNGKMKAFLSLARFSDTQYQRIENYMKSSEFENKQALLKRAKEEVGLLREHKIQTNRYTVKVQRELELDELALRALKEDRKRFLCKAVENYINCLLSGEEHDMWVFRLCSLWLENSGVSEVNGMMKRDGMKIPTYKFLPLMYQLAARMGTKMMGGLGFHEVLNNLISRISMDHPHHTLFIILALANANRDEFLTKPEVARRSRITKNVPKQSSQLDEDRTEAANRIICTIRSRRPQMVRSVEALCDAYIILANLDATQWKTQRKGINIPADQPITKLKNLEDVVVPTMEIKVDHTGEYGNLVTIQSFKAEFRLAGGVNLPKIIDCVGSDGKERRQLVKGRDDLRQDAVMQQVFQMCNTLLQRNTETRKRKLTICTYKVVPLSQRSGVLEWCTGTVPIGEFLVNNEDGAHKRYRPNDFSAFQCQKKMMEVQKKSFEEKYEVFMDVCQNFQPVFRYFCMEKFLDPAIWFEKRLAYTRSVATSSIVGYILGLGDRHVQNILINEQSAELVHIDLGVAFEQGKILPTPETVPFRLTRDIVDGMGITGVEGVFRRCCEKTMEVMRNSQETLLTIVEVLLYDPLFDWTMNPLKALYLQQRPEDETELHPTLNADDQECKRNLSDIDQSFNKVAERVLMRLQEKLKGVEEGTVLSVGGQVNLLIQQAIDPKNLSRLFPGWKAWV

| Compound | IC50 [nM] |
| --- | --- |
| CN(C)CCCOc1ncc(-c2ccc3ncc4c(c3c2)C2(CC2)C(=O)N4C)cc1-c1ccccc1 [Example 72, 8′-(6-(3-(Dimethylamino)propoxy)-5-phenylpyridin-3-yl)-3′-methylspiro[cyclopropane-1,1′-pyrrolo[2,3-c]quinolin]-2′(3′-H)-one] | > 100 |
| COc1ncc(-c2ccc3ncc4c(c3c2)C2(CC2)C(=O)N4C)cc1CS(=O)(=O)c1ccc(C)nc1 [Example 209, 8′-(6-Methoxy-5-(((6-methylpyridin-3-yl)sulfonyl)methyl)pyridin-3-yl)-3′-methylspiro[cyclopropane-1,1′-pyrrolo[2,3-c]quinolin]-2′(3′-H)-one] | > 100 |
| COc1ncc(-c2ccc3ncc4c(c3c2)C2(CC2)C(=O)N4C)cc1C(C)(C)O [Example 26, 8′-(5-(2-Hydroxypropan-2-yl)-6-methoxypyridin-3-yl)-3′-methylspiro [cyclopropane-1,1′-pyrrolo[2,3-c]quinolin]-2′(3′-H)-one] | > 100 |
| CN1C(=O)C2(CC2)c2c1cnc1ccc(-c3cccc4[nH]ncc34)cc21 [Example 50, 8′-(1H-indazol-4-yl)-3′-methylspiro[cyclopropane-1,1′-pyrrolo[2,3-c]quinolin]-2′(3′-H)-one] | > 100 |
| CCc1ncc(S(=O)(=O)Nc2cc(-c3ccc4ncc5c(c4c3)C3(CCC3)C(=O)N5C)cnc2OCCNC)s1 [Example 275, 2-Ethyl-N-(5-(3′-methyl-2′-oxo-2′,3′-dihydrospiro[cyclobutane-1,1′-pyrrolo[2,3-c]quinolin]-8′-yl)-2-(2-(methylamino)ethoxy)pyridin-3-yl)thiazole-5-sulfonamide] | 1 to 100 |
| COc1ncc(-c2ccc3ncc(Nc4ccn(C)n4)c(=O)n3c2)cc1NS(=O)(=O)c1ccccc1 [Example 16, N-(2-Methoxy-5-(3-((1-methyl-1H-pyrazol-3-yl)amino)-4-oxo-4H-pyrido[1,2-a]pyrimidin-7-yl)pyridin-3-yl)benzenesulfonamide] | > 100 |
| CN(C)CCCOc1ncc(-c2ccc3ncc4c(c3c2)C2(CC(=O)C2)C(=O)N4C)cc1NS(C)(=O)=O [Example 258, N-(2-(3-(Dimethylamino)propoxy)-5-(3′-methyl-2′,3′-dioxo-2′,3′-dihydrospiro [cyclobutane-1,1′-pyrrolo[2,3-c]quinolin]-8′-yl)pyridin-3-yl)methanesulfonamide] | 1 to 100 |
| CC(CCOc1ncc(-c2ccc3ncc4c(c3c2)C2(CCC2)C(=O)N4C)cc1NS(C)(=O)=O)N(C)C (stereo not shown) [Example 292, N-(2-(3-(Dimethylamino)butoxy)-5-(3′-methyl-2′-oxo-2′,3′-dihydrospiro [cyclobutane-1,1′-pyrrolo[2,3-c]quinolin]-8′-yl)pyridin-3-yl)methanesulfonamide] | 1 to 100 |
| CN1C(=O)C2(CCC2)c2c1cnc1ccc(-c3cnc(OCCCN4CCCCC4)c(NS(=O)(=O)CF)c3)cc21 [Example 301, 1-Fluoro-N-(5-(3′-methyl-2′-oxo-2′,3′-dihydrospiro[cyclobutane-1,1′-pyrrolo[2,3-c]quinolin]-8-yl)-2-(3-(piperidin-1-yl)propoxy)pyridin-3-yl) methanesulfonamide] | 1 to 100 |

Same assay, conditions: pKAP1 in etoposide-treated MCF-7 cells

| Compound | IC50 [nM] |
| --- | --- |
| CC(C)NCCOc1ncc(-c2cc3c4c(cnc3cc2F)N(C)C(=O)C42CN(C3CCCCC3)C2)cc1NS(C)(=O)=O [Example 499, N-(5-(1-Cyclohexyl-7′-fluoro-3′-methyl-2′-oxo-2′,3′-dihydrospiro[azetidine-3,1′-pyrrolo[2,3-c]quinolin]-8′-yl)-2-(2-(isopropylamino)ethoxy)pyridin-3-yl)methanesulfonamide] | 1 to 100 |
| CN(C)CCCOc1c(C#N)cc(-c2ccc3ncc4c(c3c2)C2(CCC2)C(=O)N4C)cc1NS(C)(=O)=O [Example 563, N-(3-Cyano-2-(3-(dimethylamino)propoxy)-5-(3′-methyl-2′-oxo-2′,3′-dihydrospiro[cyclobutane-1,1′-pyrrolo[2,3-c]quinolin]-8′-yl)phenyl)methanesulfonamide] | 1 to 100 |
| CN(C)CCCOc1ncc(-c2cc(F)c3ncc4c(c3c2)C2(CCC2)C(=O)N4C)cc1NS(=O)(=O)N(C)C [Example 557, 8′-{6-[3-(Dimethylamino)propoxy]-5-[(dimethylsulfainoyl)amino]pyridin-3-yl}-6′-fluoro-3′-methyl-2′,3′-dihydrospiro [cyclobutane-1,1′-pyrrolo[2,3-c]quinoline]-2′-one] | 1 to 100 |
| CC(C)NCCOc1ncc(-c2cc3c(cc2F)ncc2c3[C@]3(C[C@@H](OC(C)C)C3)C(=O)N2C)cc1NS(C)(=O)=O [Example 396, trans-N-(5-(7′-Fluoro-3-isopropoxy-3′-methyl-2′-oxo-2′,3′-dihydrospiro[cyclobutane-1,1′-pyrrolo[2,3-c]quinolin]-8′-yl)-2-(2-(isopropylamino)ethoxy)pyridin-3-yl)methanesulfonamide] | 1 to 100 |
| CC(C)NCCOc1ncc(-c2cc3c4c(cnc3cn2)N(C)C(=O)C42CCC2)cc1NS(C)(=O)=O [Example 562, N-(2-(2-(Isopropylamino)ethoxy)-5-(3′-methyl-2′-oxo-2′,3′-dihydrospiro [cyclobutane-1,1′-pyrrolo[2,3-c] [1,7]naphthyridin]-8′-yl)pyridin-3-yl)methanesulfonamide] | > 100 |
| CC(C)NCCOc1ncc(-c2cc3c4c(cnc3cc2F)N(C)C(=O)C42CCC2)cc1NS(=O)(=O)CC#N [Example 374, 1-Cyano-N′-(5-(7′-fluoro-3′-methyl-2′-oxo-2′,3′-dihydrospiro[cyclobutane-1,1′-pyrrolo[2,3-c]quinolin]-8′-yl)-2-(2-(isopropylamino)ethoxy)pyridin-3-yl) methanesulfonamide hydrochloride] | 1 to 100 |
| CC(C)NCCOc1ncc(-c2cc3c(cc2F)ncc2c3[C@]3(C[C@@H](c4cc[nH]c(=O)c4)C3)C(=O)N2C)cc1NS(C)(=O)=O [Example 445, trans-N-(5-(7′-Fluoro-3′-methyl-2′-oxo-3-(2-oxo-l,2-dihydropyridin-4-yl)-2′,3′-dihydrospiro[cyclobutane-1,1′-pyrrolo[2,3-c]quinolin]-8′-yl)-2-(2-(isopropylamino)ethoxy)pyridin-3-yl)methanesulfonamide] | > 100 |
| CN1C(=O)C2(CCC2)c2c1cnc1cc(F)c(-c3cnc(N4CC(N(C)C)C4)c(NS(=O)(=O)C(F)F)c3)cc21 [Example 341, N-(2-(3-(Dimethylamino)azetidin-1-yl)-5-(7′-fluoro-3′-methyl-2′-oxo-2′,3′-dihydrospiro[cyclobutane-1,1′-pyrrolo[2,3-c]quinolin]-8′-yl)pyridin-3-yl)-1,1′-difluoromethane-sulfonamide formate] | > 100 |
| CN1C(=O)C2(CCC2)c2c1cnc1ccc(-c3cnc(N4CC5CC(C4)N5C)c(NS(C)(=O)=O)c3)cc21 [Example 361, N-(5-(3′-Methyl-2′-oxo-2′,3′-dihydrospiro[cyclobutane-1,1′-pyrrolo[2,3-c]quinolin]-8′-yl)-2-(6-methyl-3,6-diazabicyclo[3.1.1]heptan-3-yl)pyridin-3-yl)methanesulfonamide formate] | > 100 |
| CC(C)NCCOc1ncc(-c2cc3c4c(cnc3cc2F)N(C)C(=O)C42CN(C)C2)cc1NS(C)(=O)=O [Example 481, N-(5-(7′-Fluoro-1,3′-dimethyl-2′-oxo-2′,3′-dihydrospiro[azetidine-3,1′-pyrrolo[2,3-c]quinolin]-8′-yl)-2-(2-(isopropylamino)ethoxy)pyridin-3-yl)methanesulfonamide hydrochloride] | 1 to 100 |
